The record followed here is US9181260B2, “Crystalline form of sitagliptin sulfate” (MOEHS IBERICA S.L., priority 2012, dated 2015).

Counter-ions that a name gives are not always drawn. Like-named read-outs stand apart in the source and are kept apart here.

Assay type in all cases: physicochemical
The nature of series [1]: Hygroscopicity study, European Pharmacopeia Ed. 6.0 Section 5.11 (degree of hydration at 80% and 97% RH, 25° C.). The note with it: for Higroscopicity RH 80% / Higroscopicity RH 97%: water content by weight difference. The procedure:
International application WO 2009/085990 A2 describes the production of an anhydrous crystalline form of sitagliptin sulfate salt and its characterization by means of DSC (Differential Scanning calorimetry), TGA (Thermal Gravimetric Analysis) and XRPD (X-Ray Powder Diffraction). However and in the hands of the inventors of the present application, said crystalline form is hygroscopic under the conditions of the European Pharmacopeia Ed. 6.0 Section 5.11 (24 hours at 80% RH and 25° C.), readily reaching a water proportion corresponding to a dihydrate form. […] A stability study of the M form of sitagliptin sulfate was performed under conditions of the European Pharmacopeia Ed. 6.0 Section 5.11, i.e., the degree of hydration was measured at 80% relative humidity (RH) at a temperature of 25° C. Additionally, the degree of hydration was also measured at 97% relative humidity (RH) at a temperature of 25° C. The results are shown in Table 1, wherein the higroscopicity (expressed as the water content by means of weight difference, following the procedure described in European Pharmacopeia Ed. 6.0 Section 5.11) of samples of 1 g of sitagliptin sulfate polymorph M of the present invention after storage at 1 day, 3 days, 7 days, 14 days and 21 days at 80% RH and 97% RH, respectively. […] 6.0 Section 5.11, i.e., the degree of hydration is less than 0.2%. The crystalline form of sitagliptin sulfate after 21 days at a relative humidity of 80% and 97%, respectively, were analyzed by means of X-ray diffraction.

Series [2] in a line: Crystalline form after grinding. The procedure: 100.0 g (245.5 mmoles) of sitagliptin base were dissolved at 20-22° C. in a mixture of 750 ml of absolute ethanol and 120 ml of water. A previously prepared solution of 98.1% H2SO4 ([…], 240.9 mmoles) in ethanol (760 ml) was slowly added to said solution, maintaining the temperature between 20-25° C. When approximately ⅔ of the total volume of the acid solution had been added, the addition was stopped and 1.0 g (1.978 mmoles) of crystalline form M of sitagliptin sulfate obtained by means of any of the processes described in Examples 1 and 3-5 was added to the reaction mixture. The presence of a white precipitate that remains undissolved was immediately noticed. The addition of the acid solution was continued and once this ended, the mixture obtained was maintained at a temperature of 20-25° C. for 4 hours. The solid obtained was filtered and washed in the filter with absolute ethanol (2×100 ml). The wet product was dried in a vacuum oven at 40° C. for 22 hours to yield 97.1 g (192.1 mmoles) of a white crystalline solid (77.6%). XRPDs both of the wet product (FIG. 3) and of the dry product (FIG. 2) which correspond with form M of sitagliptin sulfate were performed. […] (FIG. 8). The water content determined by TGA (FIG. 13) is 0.02%.

The nature of series [3]: Water content determined by thermal gravimetric analysis (TGA). The protocol:
TGA analyses were performed using a Mettler/Toledo TGA/SDTA851e thermobalance. Parameters: heating range from 30 to 300° C. with a 10° C./min ramp and a 50 ml/min dry N2 flow.

A short description of series [4]: Accelerated stability study (40° C.±2° C., 75%±5% RH), water content by Karl-Fisher and XRPD. The settings on record: for Water content: Karl-Fisher. The protocol: Water Content (Karl-Fisher Method) The analysis is performed in a Mettler Toledo W30. It is determined in 0.2 g of sample using Hydranal medium K as solvent and Hydranal composite 5K as titrant. Accelerated stability study of the M form of sitagliptin sulfate was performed under the following conditions: temperature of 40° C.±2° C. and relative humidity (RH) of 75%±5%. The water content of the sample was determined at the beginning of the study, at 3 months and at 6 months, by means of Karl-Fisher. The crystalline form of sitagliptin sulfate after 6 months was analyzed by means of X-ray diffraction.

The mark [5] stands for this setting: 80% RH and 97% RH, 25° C., up to 21 days.

In the case of `N[C@@H](CC(=O)N1CCn2c(nnc2C(F)(F)F)C1)Cc1cc(F)c(F)cc1F.O=S(=O)(O)O` [reference compound], the “hygroscopicity (in words)” value in series [1] (24 hours at 80% RH and 25° C., in the hands of the inventors) is recorded as “hygroscopic”.
For `N[C@@H](CC(=O)N1CCn2c(nnc2C(F)(F)F)C1)Cc1cc(F)c(F)cc1F` [form M, addition salt of sitagliptin with sulfuric acid (1:1)], the “crystalline form of the ground product” value in series [2] was “still the crystalline form of sitagliptin sulfate object of the present invention”. In addition, the “Higroscopicity RH 80%” value in series [1] (25° C., 80% RH, 1 day) is listed as 0.07%; in series [1] (25° C., 80% RH, 3 days) it was 0.10%; in series [1] (25° C., 80% RH, 7 days), 0.12%; in series [1] (25° C., 80% RH, 14 days), 0.10%; in series [1] (25° C., 80% RH, 21 days) it was 0.07%. The “Higroscopicity RH 97%” value in series [1] (25° C., 97% RH, 1 day) is 0.05%; in series [1] (25° C., 97% RH, 3 days), 0.08%; in series [1] (25° C., 97% RH, 7 days), 0.06%; in series [1] (25° C., 97% RH, 14 days), 0.06%; in series [1] (25° C., 97% RH, 21 days), 0.07%. Also, the degree of hydration entry is on record as “less than 0.2%” in series [1] (setting [5]) and “less than 0.2%” in series [1] (80% relative humidity, 25° C.). Besides, the “hygroscopicity (in words)” value in series [1] (setting [5]) is listed as “non-hygroscopic”; in series [1] (80% relative humidity, 25° C., Ph. Eur. 6.0 Section 5.11) it was “non-hygroscopic”. Also, the “crystalline form by XRPD after storage” value in series [1] (21 days, 25° C., 80% RH) is recorded as “corresponding to form M of sitagliptin sulfate”; in series [1] (21 days, 25° C., 97% RH), “corresponding to form M of sitagliptin sulfate”; in series [4] (6 months, 40° C.±2° C., 75%±5% RH), “corresponding to form M of sitagliptin sulfate”. The “water content determined by TGA” value in series [3] is listed as “less than 0.05%”; in series [3] (listed as Example 1), 0.02%; in series [3] (listed as Example 2) it was 0.02%; in series [3] (listed as Example 3) it was 0.03%; in series [3] (listed as Example 4), 0.01%; in series [3] (listed as Example 5) it was 0.004%. Moreover, the Water content in series [4] (3 months at 40° C.±2° C., 75%±5% RH) is given as 0.09%; in series [4] (6 months at 40° C.±2° C., 75%±5% RH) it was 0.01%; in series [4] (Initial), 0.09%.
